System: corticospinal neurons (CSNs/CSMNs)
Experiment: Laser-capture microdissection and Illumina microarray gene expression in corticospinal neurons contralateral to stroke
Type: in vivo, rat
Method: In a separate group of animals (n=20), layer V pyramidal cells of the sensorimotor cortex were retrogradely labeled by injecting Alexa-Fluor-488-conjugated cholera toxin B subunit (CTB; 300 U/μl in sterile saline) into the cervical spinal cord. For this, animals were anesthetized with a combination of ketamine and Domitor (medetomidine) and a laminectomy was performed at the cervical level of the spinal cord (C2-C4). CTB was stereotaxically delivered into four sites lateral to the corticospinal tract. Injections (1.3 μl) were spaced 1 mm apart on the rostro-caudal axis, and were made 0.5 mm to the left and right of the midline. After allowing two weeks for transport of the tracer, we performed either sham surgery with no treatment (n=6) or stroke surgery combined with saline (n=3) or inosine (n=4) treatment as described above. Seven days later, animals were decapitated under transient gas anesthesia, brains were removed and rinsed in cold RPMI medium, and a tissue block containing the sensorimotor cortex was dissected and placed in OCT Tissue Tek Medium (Sakura Finetek USA Inc., CA) on dry ice within five minutes of death. Ten μm sections were cut onto precleaned Gold Seal RITE-ON glass slides (Gold Seal Prod-ucts, Portsmouth, N.H.), placed on dry ice, and rapidly stored at −80° C.
Slide-mounted sections were thawed and dehydrated in RNAse-free ethanol gradients and xylene. Retro-gradely labeled, fluorescent cortical pyramidal cells in the undamaged hemisphere were individually captured using the Arcturus VERITAS system. ≧500 cells were collected from each animal and stored in Arcturus extraction buffer at −80° C. Total RNA was extracted from cells using the Micro-to-Midi TotalRNA Purification System (Invitrogen, Carlsbad Calif.) and double-amplified using the TargetAmp 2-Round Aminoallyl-aRNA Amplification kit 1.0 (Epicentre, Madison, Wis.). Amplified RNA was checked for average fragment length using the Agilent RNA 6000 Nano LabChip kit (Agilent Technologies, Santa Clara, Calif.) and then biotinylated and hybridized (1 μg) on Illumina RatRef-12 Expression BeadChip arrays (Illumina, San Diego Calif.), querying the expression of >22,000 RefSeq-curated rat transcripts. Results were obtained from a total of 15 samples representing 6 untreated controls, 4 animals with stroke treated with saline and 5 animals with stroke treated with inosine. Slides were processed and scanned with Illumina BeadStation platform according to the manufacturer protocol.
Raw data was analyzed using Bioconductor packages (www.bioconductor.org, (Gentleman et al., 2004)). Low level quality-control analysis was performed using inter-array Pearson correlation and clustering based on variance. Two arrays (1 saline and 1 inosine-treated) were outliers and were excluded from the analysis. Data was normalized using quantile normalization, and analysis of differential expression was performed using a linear model fitting (LIMMA package, (Smyth, 2005). Differentially expressed genes were classified according to gene ontology using Bioconductor packages and online tools (DAVID, http://david.abcc.ncifcrf.gov/). Pathway analysis was carried out using Ingenuity Pathway Analysis (Ingenuity Systems, www.ingenuity.com).

OC[C@H]1O[C@@H](n2cnc3c(O)ncnc32)[C@H](O)[C@@H]1O [inosine]
Fold-Induction Stroke, ino vs. cntrl, Hbld2 (ILMN_57967): 0.54
Signal Intensity, Hbld2 (ILMN_57967, inosine after stroke): 1095
Fold-Induction Stroke, ino vs. cntrl, LOC298490 (ILMN_58032): 0.62
Signal Intensity, LOC298490 (ILMN_58032, inosine after stroke): 1407
Fold-induction CSMNs: Lcp1 (ILMN_58058, over and above inosine's effect of decreasing stroke-induced changes): 2.68 fold
Fold-Induction Stroke, ino vs. cntrl, LOC290549 (ILMN_58092): 0.54
Signal Intensity, LOC290549 (ILMN_58092, inosine after stroke): 1870
Fold-Induction Stroke, ino vs. cntrl, Rhob (ILMN_58180): 0.52
Signal Intensity, Rhob (ILMN_58180, inosine after stroke): 276
Fold-Induction Stroke, ino vs. cntrl, Gdap2 (ILMN_58290): 0.58
Signal Intensity, Gdap2 (ILMN_58290, inosine after stroke): 319
Fold-Induction, complement cascade gene C1qa (ILMN_58496, LCM-captured CSMNs contralateral a stroke): 2.03 fold
Fold-induction CSMNs: C1qa (ILMN_58496, over and above inosine's effect of decreasing stroke-induced changes): 1.84 fold
Fold-Induction Stroke, ino vs. cntrl, Rab11a (ILMN_58550): 0.56
Signal Intensity, Rab11a (ILMN_58550, inosine after stroke): 1039
Fold-Induction Stroke, ino vs. cntrl, LOC499088 (ILMN_58730): 0.59
Signal Intensity, LOC499088 (ILMN_58730, inosine after stroke): 1089
Fold-Induction Stroke, ino vs. cntrl, Dars (ILMN_58816): 0.76
Signal Intensity, Dars (ILMN_58816, inosine after stroke): 349
Fold-Induction, complement cascade gene Adn ((P) adipsin) (ILMN_58846, LCM-captured CSMNs contralateral a stroke): 5.81 fold
Fold-Induction Stroke, ino vs. cntrl, Emb (ILMN_58897): 0.77
Signal Intensity, Emb (ILMN_58897, inosine after stroke): 425
Fold-Induction Stroke, ino vs. cntrl, Kifap3 (ILMN_59040): 0.64
Signal Intensity, Kifap3 (ILMN_59040, inosine after stroke): 270
Fold-induction CSMNs: Npc2 (ILMN_59161, over and above inosine's effect of decreasing stroke-induced changes): 1.73 fold
Fold-Induction Stroke, ino vs. cntrl, Plcb1 (ILMN_59359): 0.59
Signal Intensity, Plcb1 (ILMN_59359, inosine after stroke): 512
Fold-induction CSMNs: Emp3 (ILMN_59412, over and above inosine's effect of decreasing stroke-induced changes): 2.20 fold
Fold-Induction Stroke, ino vs. cntrl, LOC291762 (ILMN_59483): 0.52
Signal Intensity, LOC291762 (ILMN_59483, inosine after stroke): 673
Fold-Induction Stroke, ino vs. cntrl, LOC315840 (ILMN_59546): 0.85
Signal Intensity, LOC315840 (ILMN_59546, inosine after stroke): 3649
Fold-Induction, complement cascade gene C4-2 (ILMN_59751, LCM-captured CSMNs contralateral a stroke): 2.15 fold
Fold-induction CSMNs: Ppp1r14b (ILMN_59774, over and above inosine's effect of decreasing stroke-induced changes): 1.74 fold
Fold-Induction Stroke, ino vs. cntrl, Bcas2 (ILMN_59789): 0.91
Signal Intensity, Bcas2 (ILMN_59789, inosine after stroke): 1103
Fold-Induction Stroke, ino vs. cntrl, D123 (ILMN_59956): 0.76
Signal Intensity, D123 (ILMN_59956, inosine after stroke): 607
Fold-Induction Stroke, ino vs. cntrl, LOC497728 (ILMN_59964): 0.56
Signal Intensity, LOC497728 (ILMN_59964, inosine after stroke): 1366
Fold-induction CSMNs: Cd68 (ILMN_60003, over and above inosine's effect of decreasing stroke-induced changes): 2.62 fold
Fold-Induction Stroke, ino vs. cntrl, Tspan2 (ILMN_60033): 0.54
Signal Intensity, Tspan2 (ILMN_60033, inosine after stroke): 1363
Fold-induction CSMNs: Lgals3bp (ILMN_60037, over and above inosine's effect of decreasing stroke-induced changes): 2.60 fold
Fold-Induction, complement cascade gene Serping1 (ILMN_60046, LCM-captured CSMNs contralateral a stroke): 2.20 fold
Fold-induction CSMNs: Serping1 (ILMN_60046, over and above inosine's effect of decreasing stroke-induced changes): 2.93 fold
Fold-Induction Stroke, ino vs. cntrl, Pgk1 (ILMN_60123): 0.65
Signal Intensity, Pgk1 (ILMN_60123, inosine after stroke): 5869
Fold-Induction Stroke, ino vs. cntrl, Ndufa8 (ILMN_60239): 0.57
Signal Intensity, Ndufa8 (ILMN_60239, inosine after stroke): 572
Fold-Induction Stroke, ino vs. cntrl, Kbtbd9 (ILMN_60252): 0.68
Signal Intensity, Kbtbd9 (ILMN_60252, inosine after stroke): 1263
Fold-Induction Stroke, ino vs. cntrl, LOC309016 (ILMN_60417): 0.68
Signal Intensity, LOC309016 (ILMN_60417, inosine after stroke): 554
Fold-Induction Stroke, ino vs. cntrl, Bckdhb (ILMN_60448): 0.61
Signal Intensity, Bckdhb (ILMN_60448, inosine after stroke): 281
Fold-Induction Stroke, ino vs. cntrl, Rbm18 (ILMN_60511): 0.62
Signal Intensity, Rbm18 (ILMN_60511, inosine after stroke): 301
Fold-Induction Stroke, ino vs. cntrl, LOC360618 (ILMN_60542): 0.69
Signal Intensity, LOC360618 (ILMN_60542, inosine after stroke): 1021
Fold-Induction Stroke, ino vs. cntrl, Mg87 (ILMN_60584): 0.80
Signal Intensity, Mg87 (ILMN_60584, inosine after stroke): 1251
Fold-Induction Stroke, ino vs. cntrl, Ndfip1 (ILMN_60653): 0.80
Signal Intensity, Ndfip1 (ILMN_60653, inosine after stroke): 362
Fold-induction CSMNs: Rhoc (ILMN_61063, over and above inosine's effect of decreasing stroke-induced changes): 2.02 fold
Fold-Induction Stroke, ino vs. cntrl, Pja2 (ILMN_61213): 0.58
Signal Intensity, Pja2 (ILMN_61213, inosine after stroke): 2360
Fold-Induction Stroke, ino vs. cntrl, Khdrbs3 (ILMN_61216): 0.57
Signal Intensity, Khdrbs3 (ILMN_61216, inosine after stroke): 2045
Fold-Induction Stroke, ino vs. cntrl, Dlgap1 (ILMN_61367): 0.68
Signal Intensity, Dlgap1 (ILMN_61367, inosine after stroke): 1249
Fold-Induction, complement cascade gene C1qb (ILMN_61448, LCM-captured CSMNs contralateral a stroke): 1.84 fold
Fold-Induction Stroke, ino vs. cntrl, LOC500629 (ILMN_61521): 0.59

— patent US8912144B2, “Method for treating stroke via administration of NEP1-40 and inosine” (Children's Medical Center Corporation, priority 2003, dated 2014)
